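Assay format: 96-well plates, 48-hour exposure. GI50 is the concentration that inhibits growth by half. Definition used: TGI = concentration required for complete inhibition of growth.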 A value given as a limit tells only on which side of the number the result lay.

The values that follow come from PubChem BioAssay (NCI).

Common to all, as to assay: NCI tumour cell line growth inhibition, 48 h
Experiment [1] relates to OVCAR-4 ovarian.
The subject of experiment [2] is A498 renal.
Experiment [3] has as its system A549 NSCLC.
Experiment [4] deals with UO-31 renal.
Experiment [5] deals with SK-OV-3 ovarian.
Experiment [6] relates to KM12 colon.
The test system of experiment [7] is IGROV1 ovarian.
Experiment [8] has as its system SK-MEL-2 melanoma.
Experiment [9] relates to NCI-H23 lung.
Experiment [10] has as its system RXF 393 renal.

Turning to `Cc1[nH]ccc2cc3nc4ccccc4c3cc12`, the GI50 in experiment [1] was 2.65 µM; in [2], 0.421 µM; in experiment [3], 2.5 µM; in [4], 2.02 µM; in experiment [5] it was 5.42 µM; in [6] it was 2.45 µM. Moreover, the GI50 in experiment [7] is 3.65 µM; in experiment [8], 5.17 µM; in experiment [9] it was 2.55 µM; in experiment [10], 1.74 µM. For the same molecule, the TGI in experiment [1] worked out at 10.7 µM; in experiment [2], 2.15 µM; in [3] it was 12.2 µM; in experiment [4] it was 8.47 µM; in [5] it was 18.1 µM; in experiment [6] it was 11.8 µM. For the same molecule, the TGI was found to be 15.2 µM in experiment [7], 16.5 µM in experiment [8], 14.5 µM in experiment [9] and 3.91 µM in [10].
Consider `C[C@@]1(CBr)C[C@@](C)(/C=C/Cl)[C@@H](Cl)C[C@H]1Cl`, for which the TGI in [1] is 24.6 µM; in experiment [2], 30.8 µM; in experiment [3], 26.1 µM; in experiment [4], 29.1 µM; in [5], 29.9 µM; in experiment [6], 22.5 µM. Moreover, the TGI in experiment [7] was 29 µM; in experiment [8] it was 8.46 µM; in experiment [9], 27.9 µM; in experiment [10], 27.9 µM.
Turning to `COC(=O)C(C(=O)C(=O)Nc1ccc(C)cc1C)c1nc2ccc([N+](=O)[O-])cc2[nH]c1=O` (stereo not given), the TGI in experiment [1], in experiment [2], in [3], in experiment [4], in experiment [5] and in experiment [6] was > 100 µM in each case. Besides, the TGI in [7], in experiment [8], in experiment [9] and in [10] was > 100 µM in each case.
Take `COC(=O)NN=C1C(C)(C)C(=NNC(=O)OC)C1(C)C`: the TGI in experiment [1], in experiment [2], in [3], in experiment [4], in experiment [5] and in experiment [6] was > 100 µM each time. The TGI in experiment [7] was > 100 µM; in [8], > 100 µM; in experiment [9], > 78.1 µM; in [10] it was > 100 µM.
Turning to `CCN1CCN(c2cc(C)nc(NCc3cc(Nc4ccnc5cc(Cl)ccc45)ccc3F)n2)CC1`, the GI50 is 2.08 µM in experiment [1]; 1.89 µM in [2]; 5.1 µM in experiment [3]; 1.61 µM in [4]; 27.6 µM in experiment [5]; 5.3 µM in [6]. Besides, the GI50 in experiment [7] is 3.31 µM; in [8], 2.53 µM; in experiment [9], 5.79 µM; in experiment [10] it was 1.86 µM. Besides, the TGI was > 100 µM in experiment [1]; 8.05 µM in experiment [2]; > 100 µM in [3]; 3.89 µM in experiment [4]; 69.3 µM in [5]; > 100 µM in experiment [6]. Moreover, the TGI in experiment [7] is 34.1 µM; in experiment [8], 6.52 µM; in experiment [9], > 100 µM; in experiment [10], 4.19 µM.
Consider `CCCCCCCCCCC(CN(CC)CC)C(O)c1ccccc1` (stereo not given), for which the GI50 is 1.63 µM in experiment [1]; 3.68 µM in [2]; 2.49 µM in experiment [3]; 1.56 µM in [4]; 2.78 µM in [5]; 1.83 µM in [6]. The GI50 in experiment [7] is 1.82 µM; in experiment [8], 2.31 µM; in experiment [9], 1.93 µM; in experiment [10], 1.5 µM. Also, the TGI in experiment [1] came out at 3.45 µM; in experiment [2], 14.4 µM; in experiment [3], 5.41 µM; in experiment [4] it was 3.1 µM; in [5], 9.52 µM; in experiment [6], 3.39 µM. Besides, the TGI in experiment [7] was found to be 3.51 µM; in experiment [8], 5.45 µM; in experiment [9], 3.74 µM; in experiment [10], 3.05 µM.
As for `NC(=O)C12CCC1C1CCCCC12N1CCOCC1` (stereo not given), the TGI in [1], in experiment [2], in [3], in experiment [4], in [5] and in experiment [6] was > 100 µM throughout. Also, the TGI in experiment [7], in [8], in [9] and in experiment [10] was > 100 µM each time.
In the case of `COc1ccc(-c2cc3nccn3c(Nc3ncccc3C(N)=O)n2)cc1OC`, the GI50 is > 100 µM in experiment [1]; 0.456 µM in experiment [2]; 3 µM in [3]; 0.758 µM in experiment [4]; > 100 µM in experiment [5]; 2.62 µM in experiment [6]. In addition, the GI50 in [7] is 0.472 µM; in [8], 0.824 µM; in [9] it was > 39.2 µM; in experiment [10] it was 0.613 µM. The TGI was > 100 µM in [1]; > 100 µM in experiment [2]; > 100 µM in experiment [3]; 42.1 µM in experiment [4]; > 100 µM in experiment [5]; 27.3 µM in experiment [6]. For the same molecule, the TGI in experiment [7] was 6.19 µM; in experiment [8], > 100 µM; in experiment [9], > 100 µM; in experiment [10] it was 18.4 µM.
For the molecule `NC(N)=N/N=C(/c1ccccc1)c1ccc(O)cc1O`, the TGI is > 100 µM in experiment [1]; 61.7 µM in experiment [2]; > 100 µM in [3]; > 100 µM in [4]; > 100 µM in [5]; > 100 µM in [6]. Moreover, the TGI in [7], in experiment [8], in experiment [9] and in experiment [10] was > 100 µM throughout.
With `O=C(Nc1ccc([N+](=O)[O-])cc1)c1cc2ccccc2cc1O`, the GI50 in experiment [1] is 0.322 µM; in experiment [2], 0.197 µM; in experiment [3] it was 0.454 µM; in experiment [4], 0.294 µM; in [5], 0.384 µM; in [6] it was 0.698 µM. In addition, the GI50 in [7] was 0.575 µM; in experiment [8], 0.285 µM; in [9], 0.294 µM; in experiment [10], 0.34 µM. Also, the TGI in experiment [1] was > 100 µM; in [2], 0.628 µM; in experiment [3], > 21.5 µM; in experiment [4] it was 1.15 µM; in [5], 15.7 µM; in experiment [6], 2.68 µM. Also, the TGI in experiment [7] turned out to be 12.5 µM; in experiment [8], 0.722 µM; in [9], 1.42 µM; in [10], 1.26 µM.
As to `C[C@@H]1CCC2[C@@H](C)[C@H](OC(=O)CCC(=O)NCCNC(=O)Cc3cc(=O)oc4cc(N(C)C)ccc34)O[C@@H]3O[C@]4(C)CC[C@@H]1C23OO4` (stereo not given in full), the GI50 in experiment [1] was 11.4 µM; in experiment [2], 7.5 µM; in [3] it was 4.52 µM; in experiment [4], 0.897 µM; in experiment [5] it was 29 µM; in experiment [6], 0.432 µM. The GI50 in experiment [7] was 2.55 µM; in [8], 5.4 µM; in experiment [9], 0.749 µM; in experiment [10], 3.45 µM. In addition, the TGI is > 100 µM in experiment [1]; > 89.9 µM in experiment [2]; 23.1 µM in experiment [3]; 4.15 µM in [4]; > 100 µM in experiment [5]; 16.3 µM in experiment [6]. The TGI is 17.7 µM in experiment [7], > 43.7 µM in [8], 46.6 µM in experiment [9] and 43.2 µM in experiment [10].
For the molecule `C=CC[C@@]1(C#N)C[C@H](C[C@]2(C#N)C[C@H](CCl)OC(C)(C)O2)OC(C)(C)O1`, the TGI in experiment [1], in [2], in experiment [3], in experiment [4], in [5] and in experiment [6] was > 100 µM each time. In addition, the TGI in [7], in experiment [8], in experiment [9] and in [10] was > 100 µM each time.
On to `CCC(C)c1cnc(CC(C)C)c(=O)[nH]1` (stereo not given), for which the TGI in experiment [1], in [2], in [3], in experiment [4], in [5] and in experiment [6] was > 100 µM each time. The TGI in experiment [7], in experiment [8], in [9] and in experiment [10] was > 100 µM throughout.
Turning to `O=C1/C(=C/c2ccc(C(F)(F)F)cc2)COc2ccc(O)cc21`, the GI50 is 3.4 µM in experiment [1]; 11.6 µM in experiment [2]; 11.8 µM in [3]; 1.26 µM in [4]; 16.2 µM in experiment [5]; 1.75 µM in experiment [6]. For the same molecule, the GI50 is 1.6 µM in experiment [7], 9.43 µM in experiment [8], 2.14 µM in [9] and 1.74 µM in experiment [10]. Moreover, the TGI came out at 13 µM in experiment [1]; 24 µM in experiment [2]; 24.9 µM in experiment [3]; 2.67 µM in experiment [4]; 29.7 µM in experiment [5]; 3.41 µM in experiment [6]. For the same molecule, the TGI in experiment [7] worked out at 3.17 µM; in experiment [8] it was 21.9 µM; in [9], 5.38 µM; in experiment [10], 3.48 µM.
